# Test results published in paper PMC10322960 (European Journal of Drug Metabolism and Pharmacokinetics, 2023).
# Tests used:
# MATE2-K [1] = biological target: T1, MATE2-K (Homo sapiens, UniProt Q86VL8); assay: MATE2-K uptake inhibition assay; type: in vitro ADME; settings: at 40 µM
# OAT3 [2] = biological target: T2, OAT3 (Homo sapiens, UniProt Q8TCC7); assay: OAT3 uptake inhibition assay; type: in vitro ADME; settings: 0.63–40 μM
# T2 sequence (Q8TCC7 1-542): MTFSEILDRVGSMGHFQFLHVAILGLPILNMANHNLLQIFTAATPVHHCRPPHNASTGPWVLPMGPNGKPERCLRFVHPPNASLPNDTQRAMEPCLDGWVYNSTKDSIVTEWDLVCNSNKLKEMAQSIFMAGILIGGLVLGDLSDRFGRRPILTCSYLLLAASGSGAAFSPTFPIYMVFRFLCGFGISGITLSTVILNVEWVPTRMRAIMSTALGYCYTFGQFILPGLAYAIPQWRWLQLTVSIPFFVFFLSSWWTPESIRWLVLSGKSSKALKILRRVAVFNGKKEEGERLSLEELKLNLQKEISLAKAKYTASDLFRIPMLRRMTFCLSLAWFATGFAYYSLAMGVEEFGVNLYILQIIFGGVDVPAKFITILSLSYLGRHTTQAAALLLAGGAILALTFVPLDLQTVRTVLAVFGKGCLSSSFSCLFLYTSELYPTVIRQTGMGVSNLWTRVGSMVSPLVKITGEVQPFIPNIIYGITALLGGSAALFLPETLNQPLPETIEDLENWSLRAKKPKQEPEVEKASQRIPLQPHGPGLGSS
# OATP1B3 [3] = biological target: T3, OATP1B3 (Homo sapiens, UniProt Q9NPD5); assay: OATP1B3 uptake inhibition assay; type: in vitro ADME; settings: at 40 µM
# T3 sequence (Q9NPD5 1-702): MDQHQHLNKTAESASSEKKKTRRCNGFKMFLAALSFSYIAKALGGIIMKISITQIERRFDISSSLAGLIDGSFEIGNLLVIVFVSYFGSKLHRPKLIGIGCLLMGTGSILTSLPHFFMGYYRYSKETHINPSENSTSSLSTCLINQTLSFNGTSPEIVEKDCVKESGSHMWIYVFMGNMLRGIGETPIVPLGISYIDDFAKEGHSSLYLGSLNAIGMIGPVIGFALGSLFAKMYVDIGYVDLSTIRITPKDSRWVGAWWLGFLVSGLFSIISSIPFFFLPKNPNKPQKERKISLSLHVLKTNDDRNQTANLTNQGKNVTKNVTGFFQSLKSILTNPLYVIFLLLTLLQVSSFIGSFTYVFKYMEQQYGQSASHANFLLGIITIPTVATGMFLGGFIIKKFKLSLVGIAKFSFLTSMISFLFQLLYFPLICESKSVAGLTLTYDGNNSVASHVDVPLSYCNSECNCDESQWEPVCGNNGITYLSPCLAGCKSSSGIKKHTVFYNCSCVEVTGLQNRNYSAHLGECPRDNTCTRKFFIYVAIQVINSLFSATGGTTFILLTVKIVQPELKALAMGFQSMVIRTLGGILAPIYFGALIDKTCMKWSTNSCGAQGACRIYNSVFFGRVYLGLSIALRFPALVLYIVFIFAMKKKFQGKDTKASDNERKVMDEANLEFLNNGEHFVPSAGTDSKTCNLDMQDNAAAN
# MDR1 = MDR1 (Homo sapiens, UniProt P08183); assay: MDR1 monolayer substrate assay; type: in vitro ADME
# MATE2-K [4] = biological target: T1, MATE2-K; assay: MATE2-K uptake substrate assay; type: in vitro ADME
# OAT3 [5] = biological target: T2, OAT3; assay: OAT3 uptake substrate assay; type: in vitro ADME
# OATP1B1 = biological target: T4, OATP1B1 (Homo sapiens, UniProt Q9Y6L6); assay: OATP1B1 uptake substrate assay; type: in vitro ADME
# T4 sequence (Q9Y6L6 1-691): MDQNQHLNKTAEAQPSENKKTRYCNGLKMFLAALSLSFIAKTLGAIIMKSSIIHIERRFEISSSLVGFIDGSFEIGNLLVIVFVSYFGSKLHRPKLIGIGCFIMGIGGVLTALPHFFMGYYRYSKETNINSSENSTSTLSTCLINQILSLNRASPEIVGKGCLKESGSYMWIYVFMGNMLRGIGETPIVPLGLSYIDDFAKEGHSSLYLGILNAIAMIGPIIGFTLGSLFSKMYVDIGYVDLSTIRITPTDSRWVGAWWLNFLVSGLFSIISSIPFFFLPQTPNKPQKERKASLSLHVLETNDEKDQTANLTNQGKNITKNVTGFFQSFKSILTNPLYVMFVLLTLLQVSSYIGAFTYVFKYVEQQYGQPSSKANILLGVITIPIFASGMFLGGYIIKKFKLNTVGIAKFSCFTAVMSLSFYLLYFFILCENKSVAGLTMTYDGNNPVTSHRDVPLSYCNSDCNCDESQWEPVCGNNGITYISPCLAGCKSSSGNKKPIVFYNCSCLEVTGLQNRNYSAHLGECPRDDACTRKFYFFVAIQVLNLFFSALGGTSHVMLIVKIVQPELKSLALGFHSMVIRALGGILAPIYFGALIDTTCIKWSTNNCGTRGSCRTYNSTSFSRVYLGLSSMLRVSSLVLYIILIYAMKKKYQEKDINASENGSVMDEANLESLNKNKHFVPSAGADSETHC
# OATP1B3 [6] = biological target: T3, OATP1B3; assay: OATP1B3 uptake substrate assay; type: in vitro ADME
# OCT1 = OCT1 (Homo sapiens, UniProt O15245); assay: OCT1 uptake substrate assay; type: in vitro ADME
# [7] = Phase 1 clinical drug–drug interaction study, plasma pharmacokinetics; type: in vivo, human
# [8] = following 0.5-mg dose at steady state; not from this study, ref not given; cited from earlier work
# [9] = transporter-expressing vs control cells, 0.04–40 µm
# [10] = ocedurenone + itraconazole (test) vs ocedurenone alone (reference), Cohort 1
# [11] = ocedurenone + rifampin (test) vs ocedurenone alone (reference), Cohort 2
# OCT1, sequence (O15245 whole entry): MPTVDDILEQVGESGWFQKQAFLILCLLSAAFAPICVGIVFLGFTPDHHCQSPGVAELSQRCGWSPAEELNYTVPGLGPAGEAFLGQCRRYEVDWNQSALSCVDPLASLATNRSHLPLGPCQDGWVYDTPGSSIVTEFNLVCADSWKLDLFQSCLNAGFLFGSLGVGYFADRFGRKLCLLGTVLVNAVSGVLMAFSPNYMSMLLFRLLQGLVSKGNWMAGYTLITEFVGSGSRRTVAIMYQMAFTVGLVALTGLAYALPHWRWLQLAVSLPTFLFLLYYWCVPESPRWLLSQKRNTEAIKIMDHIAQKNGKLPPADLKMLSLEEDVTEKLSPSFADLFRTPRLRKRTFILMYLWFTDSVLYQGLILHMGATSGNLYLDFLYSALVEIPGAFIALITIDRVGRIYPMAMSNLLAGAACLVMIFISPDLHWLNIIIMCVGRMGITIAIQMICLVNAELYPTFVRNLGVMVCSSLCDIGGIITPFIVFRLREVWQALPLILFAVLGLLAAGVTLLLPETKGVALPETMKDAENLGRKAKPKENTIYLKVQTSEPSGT
# T1 sequence (Q86VL8 1-566 isoform Q86VL8-3): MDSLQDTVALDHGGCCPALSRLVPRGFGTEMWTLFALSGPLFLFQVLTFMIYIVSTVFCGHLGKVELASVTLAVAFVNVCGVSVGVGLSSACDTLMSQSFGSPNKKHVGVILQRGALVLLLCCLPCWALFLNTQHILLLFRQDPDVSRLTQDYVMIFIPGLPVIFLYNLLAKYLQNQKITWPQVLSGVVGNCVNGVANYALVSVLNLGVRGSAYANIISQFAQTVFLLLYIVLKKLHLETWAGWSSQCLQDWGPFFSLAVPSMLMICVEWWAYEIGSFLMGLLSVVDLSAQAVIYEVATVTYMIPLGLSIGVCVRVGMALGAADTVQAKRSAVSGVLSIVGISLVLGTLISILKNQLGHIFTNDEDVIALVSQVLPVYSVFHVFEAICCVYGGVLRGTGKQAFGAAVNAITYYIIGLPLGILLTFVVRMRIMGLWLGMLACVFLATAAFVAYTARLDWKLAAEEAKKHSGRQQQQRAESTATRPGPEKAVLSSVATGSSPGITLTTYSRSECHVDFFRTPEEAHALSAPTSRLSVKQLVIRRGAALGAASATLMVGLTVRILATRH
# MDR1, sequence (P08183 whole entry): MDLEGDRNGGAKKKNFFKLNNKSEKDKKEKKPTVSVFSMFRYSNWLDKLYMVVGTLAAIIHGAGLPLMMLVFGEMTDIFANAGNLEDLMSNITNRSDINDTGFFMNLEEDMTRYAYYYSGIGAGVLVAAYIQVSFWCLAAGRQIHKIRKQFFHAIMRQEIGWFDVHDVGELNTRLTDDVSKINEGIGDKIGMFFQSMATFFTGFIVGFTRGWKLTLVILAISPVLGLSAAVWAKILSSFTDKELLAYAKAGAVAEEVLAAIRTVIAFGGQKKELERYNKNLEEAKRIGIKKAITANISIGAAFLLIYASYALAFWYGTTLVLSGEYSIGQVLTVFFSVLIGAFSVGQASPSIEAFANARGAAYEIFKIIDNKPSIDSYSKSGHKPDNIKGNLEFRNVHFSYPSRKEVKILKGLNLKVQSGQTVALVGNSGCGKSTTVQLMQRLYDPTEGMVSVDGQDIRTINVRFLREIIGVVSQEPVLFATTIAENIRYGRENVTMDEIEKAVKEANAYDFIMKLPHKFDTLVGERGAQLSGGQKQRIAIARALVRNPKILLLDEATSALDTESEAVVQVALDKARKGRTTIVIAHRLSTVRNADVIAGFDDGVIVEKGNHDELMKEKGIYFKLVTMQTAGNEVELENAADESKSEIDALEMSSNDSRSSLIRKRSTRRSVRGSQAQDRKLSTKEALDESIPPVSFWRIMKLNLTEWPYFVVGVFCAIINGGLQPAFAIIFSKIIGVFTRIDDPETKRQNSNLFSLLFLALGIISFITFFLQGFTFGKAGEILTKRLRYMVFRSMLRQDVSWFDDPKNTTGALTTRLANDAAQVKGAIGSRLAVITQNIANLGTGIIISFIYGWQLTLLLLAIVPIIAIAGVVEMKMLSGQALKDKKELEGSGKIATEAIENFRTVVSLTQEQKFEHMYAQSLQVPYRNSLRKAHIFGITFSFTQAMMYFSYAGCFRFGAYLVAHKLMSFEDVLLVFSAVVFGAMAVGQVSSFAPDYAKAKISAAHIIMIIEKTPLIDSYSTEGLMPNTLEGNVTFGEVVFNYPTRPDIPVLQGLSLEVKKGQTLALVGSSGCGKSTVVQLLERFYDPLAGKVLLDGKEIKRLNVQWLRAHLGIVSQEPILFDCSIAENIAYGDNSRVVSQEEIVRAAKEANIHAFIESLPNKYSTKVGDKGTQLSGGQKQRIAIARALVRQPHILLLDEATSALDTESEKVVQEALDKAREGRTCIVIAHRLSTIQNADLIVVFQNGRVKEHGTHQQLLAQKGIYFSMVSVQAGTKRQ
smiles,measurement,setting,value
"N#Cc1ccc(N2N=C3c4ccc(C(=O)N5CCC(O)CC5)nc4CC[C@@H]3[C@@H]2C2CCCC2)cc1Cl [Ocedurenone, ocedurenone]",maximum inhibition of MATE2-K-mediated probe substrate accumulation,MATE2-K [1],79%
same,interaction with human OAT3 transporter (inhibition),OAT3 [2],No interaction
same,maximum inhibition of OATP1B3-mediated probe substrate accumulation,OATP1B3 [3],58%
same,"Substrate, MDR1 ML",MDR1,likely a substrate
same,"Substrate, MATE2-K UPT",MATE2-K [4],not likely to be a substrate
same,"Maximum fold accumulation, MATE2-K UPT",MATE2-K [4]; [9],< 2
same,"Substrate, OAT3 UPT",OAT3 [5],not likely to be a substrate
same,"Maximum fold accumulation, OAT3 UPT",OAT3 [5]; [9],< 2
same,"Substrate, OATP1B1 UPT",OATP1B1,not likely to be a substrate
same,"Maximum fold accumulation, OATP1B1 UPT",OATP1B1; [9],1.0
same,"Substrate, OATP1B3 UPT",OATP1B3 [6],not likely to be a substrate
same,"Maximum fold accumulation, OATP1B3 UPT",OATP1B3 [6]; [9],1.1
same,"Substrate, OCT1 UPT",OCT1,not likely to be a substrate
same,"Maximum fold accumulation, OCT1 UPT",OCT1; [9],1.1
same,"geometric least squares mean ratio (test:reference) and 90% CI, AUC0-inf",[7]; [10],"199.5 (182.3, 218.3)"
same,"geometric least squares mean ratio (test:reference) and 90% CI, AUClast",[7]; [10],"161.0 (152.3, 170.3)"
same,"geometric least squares mean ratio (test:reference) and 90% CI, Cmax",[7]; [10],"107.4 (103.2, 111.8)"
same,"geometric least squares mean ratio (test:reference) and 90% CI, AUC0-inf",[7]; [11],"17.2 (16.2, 18.2)"
same,"geometric least squares mean ratio (test:reference) and 90% CI, AUClast",[7]; [11],"17.5 (16.6, 18.5)"
same,"geometric least squares mean ratio (test:reference) and 90% CI, Cmax",[7]; [11],"73.4 (69.5, 77.5)"
same,effect of rifampin on ocedurenone pharmacokinetics (interaction class),[7]; strong CYP3A4 inducer rifampin,strong (> 5-fold)
same,effect of itraconazole on ocedurenone exposure (interaction class),[7]; strong CYP3A inhibitor itraconazole,weak (1.25- to 2-fold)
same,plasma Cmax at steady state,[8],32 to 40 ng/mL
